According to patent US4594356A, “Method for inducing mydriasis in animals” (Key Pharmaceuticals, Inc., priority 1985, dated 1986):
Where two headings read alike, the source gives them in different places.

Legend:
[1] = test system: pupil; test: Mydriatic study: pupil diameter difference between drug-treated and saline-treated eye in normal albino rabbits; assay type: in vivo, New Zealand male albino rabbits; details: drug eye vs saline eye difference
Description: Normal New Zealand male albino rabbits weighing from 2 to 3 kg. were used in the studies. The animals were placed in fiberglass restraining cages at least a half hour before the experiment and remained there throughout the test. The cages were located in a light and temperature controlled room. Pupil diameter was measured with a monostat vernier caliper held at a constant distance from observer and animal eyes. Drug solutions were formulated by dissolving the test agent in 0.9% saline solutions.
In the test procedure, a standard dose volume of 0.05 ml of the drug solution was applied to one eye and 0.9% saline was applied to the other eye of the same animal. The differences in the same animals between pupil diameter in millimeters of the eye with drug applied against the other eye with only saline instilled were recorded.
The pupillary dose response results are shown below in Table I.

[2] = Enzymatic hydrolysis in iris/ciliary body homogenate at 37° C.; assay type: in vitro ADME, New Zealand albino rabbits; details: Iris/ciliary body 10% homogenate, pH 7.4, 37° C.
Description: (§1) The stability of the ethyl succinyl derivative in isotonic saline buffer was determined in order to contrast the rates of hydrolysis of a chemical system with those of the ocular enzymatic systems. Ocular tissues were obtained from New Zealand albino rabbits. Homogenates were prepared in isotonic saline with a potassium phosphate buffer pH 7.4. High pressure liquid chromatography systems with spectrophotometric (254 nm) and electrochemical detection were used for determination.

[3] = Enzymatic hydrolysis in aqueous humor at 37° C.; assay type: in vitro ADME, New Zealand albino rabbits
Description: as §1

[4] = Enzymatic hydrolysis in corneal tissue homogenate at 37° C.; assay type: in vitro ADME, New Zealand albino rabbits; details: Corneal tissue 10% homogenate, pH 7.4, 37° C.
Description: as §1

[5] = Enzymatic hydrolysis in human plasma at 37° C.; assay type: in vitro ADME
[6] = Stability in isotonic saline buffer pH 7.4 at 37° C.; assay type: physicochemical; details: Isotonic saline pH 7.4, 37° C.
Description: as §1

[7] = test system: intraocular pressure; details: cited from earlier work; for ocular tension (intraocular pressure) reduction: clinical study
[8] = test system: glaucoma; details: cited from earlier work
[9] = test system: intraocular pressure; details: cited from earlier work
[10] = Half-life of adrenalone diesters (R methyl, R1 = R2); assay type: in vitro ADME; details: R is methyl, medium not stated, read-out: half-life (t1/2)
Excerpt: Further, it should be noted that R is preferrably methyl.

[11] = Ocular distribution after topical administration of the diester; assay type: in vivo; details: after topical administration of compound of Formula I (formed by hydrolysis / reduction-hydrolysis)
Excerpt: Thus, topical adminstration of a compound of Formula I to the eye of an animal effectively induces pupil diameter enlargement and lowers intraocular pressure for a limited duration as a novel type of site-specific delivery system for epinephrine without the concomitant appearance of any significant undesirable side-effects associated with the prior art.

[12] = test system: pupil; details: 2% solution; cited from earlier work
[13] = test system: eye; details: cited from earlier work
[14] = test system: eye; details: cited from earlier work; for ocular sympathomimetic activity: in vivo; for potency relative to dipivalyl epinephrine: on a molar basis
[15] = test system: eye; details: in vivo; cited from earlier work
[16] = test system: eye; details: topical, prolonged usage; cited from earlier work

SMILES: CCOC(=O)CCC(=O)Oc1ccc(C(=O)CNC)cc1OC(=O)CCC(=O)OCC [0,0-di(ethylsuccinyl) adrenalone hydroperchlorate]
- Pupil diameter (X ± S.E.) ([1]; 1.0×10^-2 M, 10 minutes): 0.34 mm
- Pupil diameter (X ± S.E.) ([1]; 1.0×10^-2 M, 20 minutes): 0.43 mm
- Pupil diameter (X ± S.E.) ([1]; 1.0×10^-2 M, 30 minutes): 1.27 mm
- Pupil diameter (X ± S.E.) ([1]; 1.0×10^-2 M, 60 minutes): 1.42 mm
- Pupil diameter (X ± S.E.) ([1]; 1.0×10^-2 M, 120 minutes): 0.18 mm
- Pupil diameter (X ± S.E.) ([1]; 1.0×10^-2 M, 180 minutes): 0.37 mm
- Pupil diameter (X ± S.E.) ([1]; 1.5×10^-2 M, 10 minutes): 0.33 mm
- Pupil diameter (X ± S.E.) ([1]; 1.5×10^-2 M, 20 minutes): 0.80 mm
- Pupil diameter (X ± S.E.) ([1]; 1.5×10^-2 M, 30 minutes): 1.10 mm
- Pupil diameter (X ± S.E.) ([1]; 1.5×10^-2 M, 60 minutes): 2.13 mm
- Pupil diameter (X ± S.E.) ([1]; 1.5×10^-2 M, 120 minutes): 0.34 mm
- Pupil diameter (X ± S.E.) ([1]; 1.5×10^-2 M, 180 minutes): 0.16 mm
- Pupil diameter (X ± S.E.) ([1]; 2.0×10^-2 M, 10 minutes): 0.69 mm
- Pupil diameter (X ± S.E.) ([1]; 2.0×10^-2 M, 20 minutes): 1.12 mm
- Pupil diameter (X ± S.E.) ([1]; 2.0×10^-2 M, 30 minutes): 1.64 mm
- Pupil diameter (X ± S.E.) ([1]; 2.0×10^-2 M, 60 minutes): 3.11 mm
- Pupil diameter (X ± S.E.) ([1]; 2.0×10^-2 M, 120 minutes): 0.79 mm
- Pupil diameter (X ± S.E.) ([1]; 2.0×10^-2 M, 180 minutes): 0.31 mm
- Pupil diameter (X ± S.E.) ([1]; 2.4×10^-3 M, 10 minutes): 0.15 mm
- Pupil diameter (X ± S.E.) ([1]; 2.4×10^-3 M, 20 minutes): 0.18 mm
- Pupil diameter (X ± S.E.) ([1]; 2.4×10^-3 M, 30 minutes): 0.20 mm
- Pupil diameter (X ± S.E.) ([1]; 2.4×10^-3 M, 60 minutes): 0.30 mm
- Pupil diameter (X ± S.E.) ([1]; 2.4×10^-3 M, 120 minutes): 0.08 mm
- Pupil diameter (X ± S.E.) ([1]; 2.4×10^-3 M, 180 minutes): 0.11 mm
- Pupil diameter (X ± S.E.) ([1]; 2.5×10^-2 M, 10 minutes): 0.44 mm
- Pupil diameter (X ± S.E.) ([1]; 2.5×10^-2 M, 20 minutes): 1.99 mm
- Pupil diameter (X ± S.E.) ([1]; 2.5×10^-2 M, 30 minutes): 2.90 mm
- Pupil diameter (X ± S.E.) ([1]; 2.5×10^-2 M, 60 minutes): 3.29 mm
- Pupil diameter (X ± S.E.) ([1]; 2.5×10^-2 M, 120 minutes): 1.66 mm
- Pupil diameter (X ± S.E.) ([1]; 2.5×10^-2 M, 180 minutes): 0.22 mm
- Pupil diameter (X ± S.E.) ([1]; 5.0×10^-3 M, 10 minutes): 0.20 mm
- Pupil diameter (X ± S.E.) ([1]; 5.0×10^-3 M, 20 minutes): 0.56 mm
- Pupil diameter (X ± S.E.) ([1]; 5.0×10^-3 M, 30 minutes): 0.82 mm
- Pupil diameter (X ± S.E.) ([1]; 5.0×10^-3 M, 60 minutes): 0.78 mm
- Pupil diameter (X ± S.E.) ([1]; 5.0×10^-3 M, 120 minutes): 0.46 mm
- Pupil diameter (X ± S.E.) ([1]; 5.0×10^-3 M, 180 minutes): 0.58 mm
- k (hydrolysis rate constant) [2]: 7.91 min^-1 × 10^-1
- half-life ([2]; rabbit): 0.88 min
- k (hydrolysis rate constant) [3]: 5.09 min^-1 × 10^-1
- half-life ([3]; rabbit): 1.36 min
- k (hydrolysis rate constant) [4]: 3.08 min^-1 × 10^-1
- half-life ([4]; rabbit): 2.25 min
- half-life [5]: 1.01 min
- k (hydrolysis rate constant) [5]: 6.68 min^-1 × 10^-1
- k (hydrolysis rate constant) [6]: 0.04 min^-1 × 10^-1
- half-life ([6]; isotonic saline buffer): 173 min

SMILES: CNC[C@H](O)c1ccc(O)c(O)c1 [1-adrenaline]
- ocular tension (intraocular pressure) reduction [7]: lowered ocular tension

SMILES: CC(C)NCC(=O)c1ccc(O)c(O)c1 [3,4-dihydroxy-2-(isopropylamino) acetophenone]
- mydriatic activity (side-effect) ([8]; in vivo): toxic, harmful or deleterious side-effect
- treatment of glaucoma ([8]; in vivo): successful treatment of glaucoma
- concentration needed to achieve the desired result ([8]; treatment of glaucoma): 3%

SMILES: CC(C)NCC(O)c1ccc(O)c(O)c1 (stereo not drawn) [Isoproterenol]
- intraocular pressure reduction ([9]; in vivo): satisfactorily reduced intraocular pressure
- mydriasis ([9]; in vivo): causing mydriasis
- serious side-effects ([9]; treatment of glaucoma): taachycardia, weakness, and palpatations were observed

SMILES: CCOC(=O)CCC(=O)Oc1ccc(C(=O)CNC)cc1OC(=O)CCC(=O)OCC [R1 = R2 (1)]
- half-life [10]: 1.01 min

SMILES: CCCC(=O)Oc1ccc(C(=O)CNC)cc1OC(=O)CCC [R1 = R2 (2)]
- half-life [10]: 2.13 min

SMILES: CCCCCC(=O)Oc1ccc(C(=O)CNC)cc1OC(=O)CCCCC [R1 = R2 (3)]
- half-life [10]: 2.96 min

SMILES: CCN(CC)C(=O)CCC(=O)Oc1ccc(C(=O)CNC)cc1OC(=O)CCC(=O)N(CC)CC [R1 = R2 (4)]
- half-life [10]: 8.55 min

SMILES: CNCC(=O)c1ccc(OC(=O)C=Cc2ccccc2)c(OC(=O)C=Cc2ccccc2)c1 [R1 = R2 (5)]
- half-life [10]: 10.1 min

SMILES: CNCC(=O)c1ccc(OC(=O)CC(C)C)c(OC(=O)CC(C)C)c1 [R1 = R2 (6)]
- half-life [10]: 19.2 min

SMILES: CNCC(=O)c1ccc(OC(=O)C(C)(C)C)c(OC(=O)C(C)(C)C)c1 [R1 = R2 (7)]
- half-life [10]: 57.8 min

SMILES: CNCC(=O)c1ccc(O)c(O)c1 [adrenalone]
- ocular distribution [11]: found in every compartment of the eye
- intraocular pressure reduction ([7]; 2% solution, patients suffering from glaucoma): did not cause any reduction in the intraocular pressure
- ocular tension (intraocular pressure) reduction [7]: do not
- mydriatic activity [12]: only a minimal level of mydriatic activity
- mydriasis ([13]; high concentrations): will not produce mydriasis
- reduction in the eye to adrenalin ([13]; topical administration): not reduced in the eye to the active adrenalin

SMILES: CNC[C@@H](O)c1ccc(O)c(O)c1 [d-adrenalin]
- ocular tension (intraocular pressure) reduction [7]: do not

SMILES: CNCC(=O)c1ccc(OC(=O)CC(C)C)c(OC(=O)CC(C)C)c1 [diisovaleryl]
- ocular sympathomimetic activity [14]: High ocular sympathomimetic activity
- potency relative to dipivalyl epinephrine [14]: more potent on a molar basis than the successful prodrug of epinephrine, dipivalyl epinephrine

SMILES: CNCC(=O)c1ccc(OC(=O)C(C)(C)C)c(OC(=O)C(C)(C)C)c1 [dipivalyl]
- ocular sympathomimetic activity [14]: High ocular sympathomimetic activity
- potency relative to dipivalyl epinephrine [14]: more potent on a molar basis than the successful prodrug of epinephrine, dipivalyl epinephrine
- recovery of normal vision [15]: did not achieve faster recovery of normal vision

SMILES: CNC[C@H](O)c1ccc(O)c(O)c1 [epinephrine]
- ocular distribution [11]: found only in the uveal (iris-ciliary body) tissues
- mydriasis (side effect) [16]: frequently causes mydriasis
- retinal maculopathy (side effect) [16]: sometimes retinal maculopathy
